Data reported in US12508266B2 (priority 2010, dated 2025).
Values after ≈ are worked out from the molar mass of the structure shown.

Tested on: A/NJ/15/2007 (H1N1-H274Y)
Assay type: cell-based, influenza

Nc1ncnc2c([C@@H]3N[C@H](CO)[C@@H](O)[C@H]3O)c[nH]c12 [Compound 1, (2S,3S,4R,5R)-2-(4-Amino-5H-pyrrolo[3,2-d]pyrimidin-7-yl)-5-(hydroxymethyl) pyrrolidine-3,4-diol]
EC50: 1.39 µg/mL (≈ 5.24 µM)
